Laboratory results reported in patent US12617752B2, “Rapidly metabolized lipid compound” (Beijing Jitai Life Sciences Ltd, priority 2023, dated 2026).

Legend:
[1] = Particle size and PDI of lipid nanoparticles by dynamic light scattering; assay type: physicochemical; settings: lipid nanoparticles with luciferase mRNA; ionizable lipid/cholesterol/DSPC/DMG-PEG2000 50/38.5/10/1.5 mol%
Description: (§1) Lipid nanoparticles were prepared by (1) dissolving and mixing ionizable lipid compounds, cholesterol, phospholipids and polyethylene glycolated lipids in ethanol at (molar percentages) 50%, 38.5%, 10% and 1.5%, respectively; (2) dissolving the mRNA active ingredient in 25 mM sodium acetate solution (pH=4.5); (3) using an automated high-throughput microfluidic system to mix the organic phase containing the lipid mixture and the aqueous phase containing the mRNA component in the flow ratio range of 1:1 to 1:4 at a mixing speed of 10 mL/min to 18 mL/min; (4) the prepared lipid nanoparticles (N/P ratio=6) were diluted with phosphate buffer solution and the nanoparticle solutions were ultrafiltered to the original preparation volume using ultrafiltration tubes (purchased from Millipore) with a cut-off molecular weight of 30 kDa; and (5) the obtained nanoparticles were filtered through a sterile 0.2 μm filter membrane and then stored in a sealed glass vial at low temperature.
(§2) The particle size and particle size dispersity index (PDI) of the prepared lipid nanoparticles were measured using a Zetasizer Pro (purchased from Malvern Instruments Ltd) and a DynaPro NanoStar (purchased from Wyatt) dynamic light scattering instrument. The degree of RNA encapsulation by lipid nanoparticles was characterized by the Encapsulation Efficiency %, which reflects the degree of binding of lipid nanoparticles to RNA fragments. This parameter was measured by the method of Quant-it™ RiboGreen RNA Assay (purchased from Invitrogen). Lipid nanoparticle samples were diluted in TE buffer (10 mM Tris-HCl, 1 mM EDTA, pH=7.5). A portion of the sample solution was removed, to which 0.5% Triton (Triton X-100) was added, and then allowed to stand at 37° C. for 30 minutes. Immediately after the addition of RIBOGREEN® reaction solution, the fluorescence values were read on a Varioskan LUX multifunctional microplate reader (purchased from Thermofisher) at 485 nm for absorption and 528 nm for emission to give the encapsulation efficiency values.

[2] = system: C57BL/6 mice; assay: In vivo delivery of luciferase mRNA lipid nanoparticles in mice (bioluminescence imaging); settings: intravenous, single dose 0.5 mg/kg luciferase mRNA
Description: The delivery effect and safety of nanoparticles encapsulated with luciferase mRNA (Trilink, L-7202) in mice were evaluated. The test mice were SPF-grade C57BL/6 mice, female, 6-8 weeks old, weighing 18-22 g, and were purchased from SPF (Beijing) Biotechnology Co., Ltd. All animals were acclimatized for more than 7 days prior to the experiment, and had free access to food and water during the experiment. The conditions include alternating light and dark for 12/12 h, the indoor temperature of 20-26° C. and the humidity of 40-70%. The mice were randomly grouped. The lipid nanoparticles encapsulated with luciferase mRNA prepared above were injected into mice by intravenous administration at a single dose of 0.5 mg/kg mRNA, and the mice were subjected to in vivo bioluminescence assay using a Small Animal In Vivo Imaging System (IVIS LUMINA III, purchased from PerkinElmer) at 6 h after administration. The assay was performed as follows: D-luciferin solution was prepared in saline at a concentration of 15 mg/mL, and each mouse was given the substrate by intraperitoneal injection. At ten minutes after administration of the substrate, the mice were anesthetized in an anesthesia chamber with isoflurane at a concentration of 2.5%. The anesthetized mice were placed in IVIS for fluorescence imaging, and data acquisition and analysis were performed on the concentrated distribution area of fluorescence.
The in vivo delivery efficiency of lipid nanoparticle carriers was expressed as the mean values of fluorescence intensity and total photon count in different animals within the same subject group, as shown in Table 5-Table 11. Higher values of fluorescence intensity and total photon count indicate higher in vivo delivery efficiency of this mRNA fragment by lipid nanoparticles. The lipid nanoparticles containing the cationic lipids of the present disclosure have good in vivo delivery efficiency.

[3] = Encapsulation efficiency of lipid nanoparticles (Quant-it RiboGreen RNA Assay); assay type: physicochemical; settings: lipid nanoparticles with luciferase mRNA
Description: as §1, §2

Particle size (nm) [1] [nm]	Particle-size distribution (PDI) [1]	Encapsulation efficiency (%) [3] [%]	Compound	Total photon count in vivo at 6 hours after administration (Total Flux) [2]
102.50	0.11	98.29	CCCCCCCCCC(=O)OCC(C)(C)CCCCCN(CCCCCCCC(=O)OC(CCCCCCCC)CCCCCCCC)C(=O)SCCCCN(C)C [38b]	1.49E+10
120.90	0.18	95.08	CCCCCCCCCOC(=O)C(C)(C)CCCCCCN(CCO)CCCCCCOC(=O)OCC(CCCCCCC)CCCCCCC [40a]	2.03E+11
97.10	0.11	96.74	CCCCCCCCCCC(=O)OCC(C)(C)CCCCCN(CCCCCCCC(=O)OC(CCCCCCCCC)CCCCCCCCC)C(=O)SCCCCN(C)C [40b]	3.70E+10
121.89	0.08	95.26	CCCCCCCCCC(=O)OCC1(CCCCCN(CCCCCCCC(=O)OCC(CCCCCCC)CCCCCCC)C(=O)SCCCN(C)C)CC1 [43b]	1.29E+10
92.67	0.20	96.84	CCCCCCCCCOC(=O)OCCCCCCN(CCO)CCCCC(C)(C)CCC(=O)OCC(CCCCCCC)CCCCCCC [44a]	1.06E+11
92.63	0.15	97.45	CCCCCCCCCC(=O)OCC1(CCCCCN(CCCCCCCC(=O)OCC(CCCCCCC)CCCCCCC)C(=O)SCCCCN(C)C)CC1 [44b]	1.16E+10
114.73	0.15	94.63	CCCCCCCCCOC(=O)CC(C)(C)CCCCCN(CCO)CCCCCCOC(=O)OCC(CCCCCCC)CCCCCCC [45a]	1.22E+11
110.83	0.16	93.03	CCCCCCCCCOC(=O)CCC(C)(C)CCCCN(CCO)CCCCCCOC(=O)OCC(CCCCCCC)CCCCCCC [46a]	9.06E+10
98.91	0.09	97.78	CCCCCCCCCCC(=O)OCC(C)(C)CCCCCN(CCCCCCOC(=O)OC(CCCCCCCCC)CCCCCCCCC)C(=O)SCCCCN(C)C [46b]	2.44E+10
104.47	0.21	93.23	CCCCCCCCCOC(=O)CCCCC(C)(C)CCN(CCO)CCCCCCOC(=O)OCC(CCCCCCC)CCCCCCC [47a]	3.10E+10
81.22	0.16	96.13	CCCCCCCCCCOC(=O)OCCCCCCN(CCO)CCCCCCC(C)(C)C(=O)OC(CCCCCCCCC)CCCCCCCCC [48a]	8.16E+10
78.03	0.12	98.67	CCCCCCCC(CCCCCCC)COC(=O)CCCCC(C)(C)CCN(CCO)CCCCCCOC(=O)OCC(CCCCCCC)CCCCCCC [50a]	2.86E+10
92.08	0.15	94.81	CCCCCCCCCOC(=O)CCCCCCCN(CCO)CCCCC(C)(C)COC(=O)OCC(CCCCCCC)CCCCCCC [51a]	3.11E+10
91.96	0.12	95.92	CCCCCCCCCC(=O)OCC(C)(C)CCCCCN(CCO)CCCCCCCC(=O)OC(CCCCCCCCC)CCCCCCCCC [51b]	7.60E+10
105.97	0.06	90.84	CCCCCCCCCC(=O)OCC(C)(C)CCCCCN(CCCCO)CCCCCCCC(=O)OC(CCCCCCCCC)CCCCCCCCC [52b]	1.01E+11
124.00	0.23	90.96	CCCCCCCCCCCSC(=O)CCCCCN(CCO)CCCCCCC(C)(C)C(=O)OC(CCCCCCCC)CCCCCCCC [53a]	9.04E+10
125.03	0.42	91.92	CCCCCCCCCC(=O)OCC1(CCCCCN(CCO)CCCCCCCC(=O)OC(CCCCCCCCC)CCCCCCCCC)CC1 [53b]	1.00E+11

Compound	Particle size (nm) [1] [nm]	Particle-size distribution (PDI) [1]	Encapsulation efficiency (%) [3] [%]	Total photon count in vivo at 6 hours after administration (Total Flux) [2]
CCCCCCCCCOC(=O)OCCCCCCN(CCCCO)CCCCCCC(C)(C)C(=O)OCCCC(CCCCC)CCCCC [39a]	144.83	0.08	93.59	2.24E+10
CCCCCCCCCOC(=O)C(C)(C)CCCCCCN(CCO)CCCCCCOC(=O)OCCC(CCCCCC)CCCCCC [41a]	114.03	0.13	94.51	1.11E+11
CCCCCCCCCOC(=O)C(C)(C)CCCCCCN(CCO)CCCCCCOC(=O)OCCCC(CCCCC)CCCCC [42a]	104.13	0.17	95.54	3.47E+10
CCCCCCCCCOC(=O)C(C)(C)CCCCCCN(CCO)CCCCCCOC(=O)OCCCCC(CCCC)CCCC [43a]	105.63	0.15	97.03	2.23E+10
CCCCCCCCCC(=O)OCC(C)(C)CCCCCN(CCCCCCOC(=O)OCC(CCCCCCC)CCCCCCC)C(=O)SCCCN(C)C [47b]	122.40	0.07	97.27	2.84E+10
CCCCCCCCCCCOC(=O)OCCCCCCN(CCO)CCCCCCC(C)(C)C(=O)OC(CCCCCCCCCC)CCCCCCCCCC [49a]	100.56	0.14	94.85	2.28E+10
CCCCCCCCOC(=O)OCC(C)(C)CCCCCN(CCCCCCOC(=O)CC(CCCCCCCC)CCCCCCCC)C(=O)SCCCCN(C)C [50b]	98.36	0.13	98.50	1.01E+10
CCCCCCCCCSC(=O)CCCCCCCN(CCO)CCCCCCC(C)(C)C(=O)OC(CCCCCCCC)CCCCCCCC [52a]	79.40	0.09	93.30	2.58E+10
CCCCCCC#CCOC(=O)CCCCCCCN(CCO)CCCCCCC(C)(C)C(=O)OC(CCCCCCCC)CCCCCCCC [54a]	87.37	0.14	91.34	1.32E+10
